Each structure is given as a SMILES string.

This is an account of results in patent US20070213359A1 (ACADIA Pharmaceuticals Inc., priority 2005, published 2007).

In one experiment the target is T1, GHSR1a receptor (Homo sapiens, UniProt Q92847).
T1 construct: expressed in transfected cells; host or cells: HEK293 (membranes)
T1 sequence (Q92847 whole entry): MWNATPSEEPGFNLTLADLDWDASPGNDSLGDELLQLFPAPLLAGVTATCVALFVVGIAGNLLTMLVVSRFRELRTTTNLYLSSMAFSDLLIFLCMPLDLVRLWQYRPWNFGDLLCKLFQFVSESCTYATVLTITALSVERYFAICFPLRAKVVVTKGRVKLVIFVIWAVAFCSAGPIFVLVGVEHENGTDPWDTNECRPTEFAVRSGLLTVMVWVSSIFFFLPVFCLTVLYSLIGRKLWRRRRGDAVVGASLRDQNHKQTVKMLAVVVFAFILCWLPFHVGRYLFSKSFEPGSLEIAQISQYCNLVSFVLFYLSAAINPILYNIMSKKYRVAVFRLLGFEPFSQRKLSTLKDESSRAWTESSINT
Nature of the experiment: 125I-Ghrelin binding assay. Conditions: Binding pKi, displacement of 125I-ghrelin (0.053 nM), membranes of HEK293 cells transfected with GHSR1a; Cheng-Prussoff; '—' not defined. Background: Loss of bound radioactivity is the signal in a displacement assay; it reports binding, not function.
`COc1cccc2c(C(=O)NCC(C)C)cn(CCCN3CCC(c4nc5ccccc5s4)CC3)c12` [drawing 234] showed a Ki of 1000 nM.
In the case of `CCCCC1CCN(CCCn2cc(C(C)=O)c3ccccc32)CC1` [drawing 584], the Ki was 3980 nM.

Still in this experiment, the particulars now being: displacement of 125I-ghrelin (0.053 nM), membranes of HEK293 cells transfected with GHSR1a; Cheng-Prussoff; '—' not defined; read-out: Binding pKi (converted).
On to `COc1cccc2c(C(=O)Cc3ccccc3)cn(CCCN3C4CCC3CC(CCc3ccccc3)C4)c12` (stereo not drawn), for which the Ki was 10 nM.
On the same count and under the same terms, to `COc1cccc2c(C(=O)NCC(C)C)cn(CCCN3CCC(Oc4ccc(F)cc4)CC3)c12` belongs 126 nM; to `COc1cccc2c(C(=O)C3CC3)cn(CCCN3CCC(Oc4cccc(Cl)c4)CC3)c12`, 20 nM; to `CCCCC[C@H]1C[C@H]2CC[C@@H](C1)N2CCCn1cc(C(C)=O)c2cccc(OC)c21`, 316 nM.
Same read-out and setting: the same measure for `COc1cccc2c(C#N)cn(CCCN3C4CCC3CC(CCc3ccccc3)C4)c12` (stereo not drawn): 25.1 nM; for `COc1cccc2c(C(C)=O)cn(CCCN3CCN(c4ncc(C(F)(F)F)cc4Cl)CC3)c12`: 398 nM; for `COc1cccc2c(C#N)cn(CCCN3CCCN(Cc4ccccc4Cl)CC3)c12`: 12.6 nM.
The same measure, in the same setting: the same measure for `CC(=O)c1cn(CCCN2CCC(C(=O)c3ccccc3)CC2)c2c(C)cccc12`: 100 nM.
Regarding `CC(=O)c1cn(CCCN2CCCN(Cc3ccccc3Cl)CC2)c2ncccc12`, the Ki was 25.1 nM.
Still for that read-out and setting: the same measure for `COc1cccc2c(C(=O)Cc3ccccc3)cn(CCCN3CCN(Oc4cccc(Cl)c4)CC3)c12`: 15.8 nM; for `COc1cccc2c(C(=O)Cc3ccccc3)cn(CCCN3C4CCC3CC(Oc3ccc(F)cc3)C4)c12` (stereo not drawn): 251 nM; for `COc1cccc2c(C(=O)c3ccccc3)cn(CCCN3CCCN(Cc4ccc(F)cc4)CC3)c12`: 10 nM.
Same read-out and setting: to `COc1cccc2c(C(=O)NCC(C)C)cn(CCCN3CCC(Oc4ccc(Cl)cc4)CC3)c12` belongs 50.1 nM; to `CC(=O)c1cn(CCCN2CCC(C(=O)c3ccccc3)CC2)c2c(Br)cccc12`, 1580 nM; to `COc1cccc2c(C#N)cn(CCCN3C4CCC3CC(Oc3ccccc3Cl)C4)c12` (stereo not drawn), 631 nM.
Still for that read-out and setting: the same measure for `CC(C)CC(=O)c1cn(CCCN2CCC(Oc3ccc(F)cc3)CC2)c2ccccc12`: 1000 nM; for `CCc1cccc2c(C(C)=O)cn(CCCNCCOc3ccccc3)c12`: 12.6 nM.
As for `CCCCC(=O)c1cn(CCCN2CCC(Oc3ccc(Cl)cc3)CC2)c2ccc(OC)cc12`, the Ki was 251 nM.
The same measure, in the same setting: to `CC(=O)c1cn(CCCN2CCC(Oc3ccc(Cl)cc3)CC2)c2ccccc12` belongs 2510 nM.
For the compound `CCCCCC=C1CCN(CCCn2cc(C(C)=O)c3ccccc32)CC1`, the Ki was 200 nM.
Take `CCCCCCC1CCN(CCCn2cc(C(C)=O)c3ccccc32)CC1`: the Ki was 6310 nM.
As to `CC(=O)c1cn(CCCN2CCC(CCC(C)C)CC2)c2ccccc12`, the Ki was 3980 nM.

In another experiment the target is Ghrelin receptor (Homo sapiens, UniProt Q92847). Nature of the experiment: Receptor Selection and Amplification Technology (R-SAT) assay. The format is cell-based. The arrangement: expressed in transfected cells; host or cells: NIH3T3. Conditions: […]; '—' not defined (nd used separately); read-out: RSAT pIC50 (converted).
Sequence of Ghrelin receptor (Q92847 whole entry): as above
Regarding `COc1cccc2c(C(=O)Cc3ccccc3)cn(CCCN3C4CCC3CC(CCc3ccccc3)C4)c12` (stereo not drawn), the IC50 was 0.251 nM.
Still for that read-out and setting: to `COc1cccc2c(C(=O)Cc3ccccc3)cn(CCCN3CCN(Oc4cccc(Cl)c4)CC3)c12` belongs 3.16 nM; to `COc1cccc2c(C(=O)Cc3ccccc3)cn(CCCN3C4CCC3CC(Oc3ccc(F)cc3)C4)c12` (stereo not drawn), 3.98 nM.
Still for that read-out and setting: the same measure for `COc1cccc2c(C(=O)c3ccccc3)cn(CCCN3CCCN(Cc4ccc(F)cc4)CC3)c12`: 3.98 nM.
On the same count and under the same terms, the same measure for `CC(C)CC(=O)c1cn(CCCN2CCC(Oc3ccc(F)cc3)CC2)c2ccccc12`: 100 nM; for `COc1cccc2c(C(=O)NCC(C)C)cn(CCCN3CCC(c4nc5ccccc5s4)CC3)c12` [drawing 234]: 1.58 nM; for `CCCCC1CCN(CCCn2cc(C(C)=O)c3ccccc32)CC1` [drawing 584]: 631 nM.

Staying with this experiment, now noted: negative logarithm of ligand concentration causing 50% inhibition of constitutive receptor response; transfected NIH3T3 cells; '—' not defined (nd used separately); read-out: RSAT pIC50 (converted).
`COc1cccc2c(C(=O)NCC(C)C)cn(CCCN3CCC(Oc4ccc(F)cc4)CC3)c12`: the IC50 is 1.58 nM.
Regarding `COc1cccc2c(C(=O)C3CC3)cn(CCCN3CCC(Oc4cccc(Cl)c4)CC3)c12`, the IC50 was 1.58 nM.
Still for that read-out and setting: the same measure for `CCCCC[C@H]1C[C@H]2CC[C@@H](C1)N2CCCn1cc(C(C)=O)c2cccc(OC)c21`: 2 nM.
As for `COc1cccc2c(C#N)cn(CCCN3C4CCC3CC(CCc3ccccc3)C4)c12` (stereo not drawn), the IC50 was 2 nM.
In the case of `COc1cccc2c(C(C)=O)cn(CCCN3CCN(c4ncc(C(F)(F)F)cc4Cl)CC3)c12`, the IC50 is 2.51 nM.
In the case of `COc1cccc2c(C#N)cn(CCCN3CCCN(Cc4ccccc4Cl)CC3)c12`, the IC50 is 2.51 nM.
Still for that read-out and setting: the same measure for `CC(=O)c1cn(CCCN2CCC(C(=O)c3ccccc3)CC2)c2c(C)cccc12`: 3.16 nM.
Still for that read-out and setting: the same measure for `CC(=O)c1cn(CCCN2CCCN(Cc3ccccc3Cl)CC2)c2ncccc12`: 3.16 nM.
Still for that read-out and setting: the same measure for `COc1cccc2c(C(=O)NCC(C)C)cn(CCCN3CCC(Oc4ccc(Cl)cc4)CC3)c12`: 3.98 nM.
As for `CC(=O)c1cn(CCCN2CCC(C(=O)c3ccccc3)CC2)c2c(Br)cccc12`, the IC50 was 79.4 nM.
On the same count and under the same terms, the same measure for `COc1cccc2c(C#N)cn(CCCN3C4CCC3CC(Oc3ccccc3Cl)C4)c12` (stereo not drawn): 100 nM.
The same measure, in the same setting: the same measure for `CCc1cccc2c(C(C)=O)cn(CCCNCCOc3ccccc3)c12`: 100 nM; for `CCCCC(=O)c1cn(CCCN2CCC(Oc3ccc(Cl)cc3)CC2)c2ccc(OC)cc12`: 126 nM.
On to `CC(=O)c1cn(CCCN2CCC(Oc3ccc(Cl)cc3)CC2)c2ccccc12`, for which the IC50 is 126 nM.
On the same count and under the same terms, the same measure for `CCCCCC=C1CCN(CCCn2cc(C(C)=O)c3ccccc32)CC1`: 200 nM; for `CCCCCCC1CCN(CCCn2cc(C(C)=O)c3ccccc32)CC1`: 200 nM; for `CC(=O)c1cn(CCCN2CCC(CCC(C)C)CC2)c2ccccc12`: 398 nM.

Staying with this experiment, now noted: percent inhibition at saturating ligand, normalized to reference ligand Substance P analog = 100%.
Turning to `CCCCC[C@H]1C[C@H]2CC[C@@H](C1)N2CCCn1cc(C(C)=O)c2cccc(OC)c21`, the “RSAT Eff(%)” value is 113%.
The same measure, in the same setting: the same measure for `COc1cccc2c(C(C)=O)cn(CCCN3CCN(c4ncc(C(F)(F)F)cc4Cl)CC3)c12`: 103%.

Staying with this experiment, now noted: percent inhibition at saturating ligand, normalized to reference ligand Substance P analog = 100%; read-out: RSAT Eff(%).
As for `COc1cccc2c(C#N)cn(CCCN3CCCN(Cc4ccccc4Cl)CC3)c12`, the Emax was 137%.
Take `CC(=O)c1cn(CCCN2CCC(C(=O)c3ccccc3)CC2)c2c(C)cccc12`: the Emax worked out at 96%.
Still for that read-out and setting: to `CC(=O)c1cn(CCCN2CCCN(Cc3ccccc3Cl)CC2)c2ncccc12` belongs 115%.
Still for that read-out and setting: the same measure for `CC(=O)c1cn(CCCN2CCC(C(=O)c3ccccc3)CC2)c2c(Br)cccc12`: 84%; for `COc1cccc2c(C#N)cn(CCCN3C4CCC3CC(Oc3ccccc3Cl)C4)c12` (stereo not drawn): 114%; for `CCc1cccc2c(C(C)=O)cn(CCCNCCOc3ccccc3)c12`: 106%.
Same read-out and setting: to `CC(=O)c1cn(CCCN2CCC(Oc3ccc(Cl)cc3)CC2)c2ccccc12` belongs 104%.
Turning to `CCCCCC=C1CCN(CCCn2cc(C(C)=O)c3ccccc32)CC1`, the Emax is 139%.
Take `CCCCCCC1CCN(CCCn2cc(C(C)=O)c3ccccc32)CC1`: the Emax was 94%.
Still for that read-out and setting: the same measure for `CC(=O)c1cn(CCCN2CCC(CCC(C)C)CC2)c2ccccc12`: 73%.

The experiment is the same for the next values; noted with them: read-out: RSAT Eff(%).
Regarding `COc1cccc2c(C(=O)Cc3ccccc3)cn(CCCN3C4CCC3CC(CCc3ccccc3)C4)c12` (stereo not drawn), the Emax is 141%.
Still for that read-out and setting: to `COc1cccc2c(C(=O)NCC(C)C)cn(CCCN3CCC(Oc4ccc(F)cc4)CC3)c12` belongs 90%; to `COc1cccc2c(C(=O)C3CC3)cn(CCCN3CCC(Oc4cccc(Cl)c4)CC3)c12`, 102%; to `COc1cccc2c(C#N)cn(CCCN3C4CCC3CC(CCc3ccccc3)C4)c12` (stereo not drawn), 104%.
Still for that read-out and setting: the same measure for `COc1cccc2c(C(=O)Cc3ccccc3)cn(CCCN3CCN(Oc4cccc(Cl)c4)CC3)c12`: 88%.
The same measure, in the same setting: to `COc1cccc2c(C(=O)Cc3ccccc3)cn(CCCN3C4CCC3CC(Oc3ccc(F)cc3)C4)c12` (stereo not drawn) belongs 99%; to `COc1cccc2c(C(=O)c3ccccc3)cn(CCCN3CCCN(Cc4ccc(F)cc4)CC3)c12`, 96%.
In the case of `COc1cccc2c(C(=O)NCC(C)C)cn(CCCN3CCC(Oc4ccc(Cl)cc4)CC3)c12`, the Emax amounted to 146%.
Same read-out and setting: the same measure for `CC(C)CC(=O)c1cn(CCCN2CCC(Oc3ccc(F)cc3)CC2)c2ccccc12`: 93%.
For the compound `CCCCC(=O)c1cn(CCCN2CCC(Oc3ccc(Cl)cc3)CC2)c2ccc(OC)cc12`, the Emax was 111%.
On to `COc1cccc2c(C(=O)NCC(C)C)cn(CCCN3CCC(c4nc5ccccc5s4)CC3)c12` [drawing 234], for which the Emax was 106%.
Still for that read-out and setting: to `CCCCC1CCN(CCCn2cc(C(C)=O)c3ccccc32)CC1` [drawing 584] belongs 77%.
